Measurements: ChEMBL document CHEMBL1909046, “DrugMatrix in vitro pharmacology data”

Columns and labels:
[1] = target: Voltage-gated inwardly rectifying potassium channel KCNH2 (Homo sapiens, UniProt Q12809); settings: hek293
[2] = target: 5-hydroxytryptamine receptor 2B (Homo sapiens, UniProt P41595); format: cell membranes, CHO-K1, Membrane
[3] = target: T1, Substance-K receptor (Homo sapiens, UniProt P21452); format: cell membranes, CHO, Membrane; settings: for Ki: read-out: Ki
T1 sequence (P21452 whole entry): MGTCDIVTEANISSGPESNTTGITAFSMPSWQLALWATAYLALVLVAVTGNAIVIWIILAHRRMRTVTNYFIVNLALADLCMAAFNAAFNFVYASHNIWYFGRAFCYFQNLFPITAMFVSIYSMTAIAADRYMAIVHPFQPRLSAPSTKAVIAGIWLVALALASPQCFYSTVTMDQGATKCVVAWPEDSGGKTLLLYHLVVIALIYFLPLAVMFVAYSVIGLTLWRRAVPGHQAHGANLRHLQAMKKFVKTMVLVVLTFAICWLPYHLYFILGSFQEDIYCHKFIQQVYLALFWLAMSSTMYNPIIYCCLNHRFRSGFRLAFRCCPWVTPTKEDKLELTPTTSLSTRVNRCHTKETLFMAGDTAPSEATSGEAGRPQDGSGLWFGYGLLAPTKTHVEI

[4] = target: C-C chemokine receptor type 2 (Homo sapiens, UniProt P41597); format: cell membranes, CHO-K1, Membrane
[5] = target: Substance-P receptor (Homo sapiens, UniProt P25103); format: cell membranes, CHO, Membrane; settings: cho
Also: in other assays of this panel Not Active means under 50% inhibition at 10 µM.

Chain of Substance-P receptor (P25103 whole entry): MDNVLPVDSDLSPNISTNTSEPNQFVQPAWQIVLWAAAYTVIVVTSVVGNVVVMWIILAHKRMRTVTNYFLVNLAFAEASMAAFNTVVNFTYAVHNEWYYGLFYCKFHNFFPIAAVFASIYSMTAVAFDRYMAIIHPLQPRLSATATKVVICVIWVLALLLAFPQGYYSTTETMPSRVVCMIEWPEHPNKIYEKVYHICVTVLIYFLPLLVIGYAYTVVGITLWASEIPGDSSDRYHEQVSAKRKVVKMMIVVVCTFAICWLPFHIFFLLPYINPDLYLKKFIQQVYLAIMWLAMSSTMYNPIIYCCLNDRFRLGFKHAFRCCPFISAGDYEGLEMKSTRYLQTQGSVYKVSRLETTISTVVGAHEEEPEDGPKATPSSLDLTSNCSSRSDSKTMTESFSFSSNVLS
Chain of C-C chemokine receptor type 2 (P41597 whole entry): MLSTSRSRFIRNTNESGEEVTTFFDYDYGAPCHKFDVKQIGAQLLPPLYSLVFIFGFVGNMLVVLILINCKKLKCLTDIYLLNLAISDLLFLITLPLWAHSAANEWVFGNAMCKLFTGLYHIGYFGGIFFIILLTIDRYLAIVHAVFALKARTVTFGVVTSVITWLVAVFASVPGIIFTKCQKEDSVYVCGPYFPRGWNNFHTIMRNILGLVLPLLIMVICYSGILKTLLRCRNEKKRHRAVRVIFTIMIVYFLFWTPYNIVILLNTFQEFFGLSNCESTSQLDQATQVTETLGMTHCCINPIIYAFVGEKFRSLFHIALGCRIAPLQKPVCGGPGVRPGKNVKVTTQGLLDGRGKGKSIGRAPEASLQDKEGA
Chain of Voltage-gated inwardly rectifying potassium channel KCNH2 (Q12809 whole entry): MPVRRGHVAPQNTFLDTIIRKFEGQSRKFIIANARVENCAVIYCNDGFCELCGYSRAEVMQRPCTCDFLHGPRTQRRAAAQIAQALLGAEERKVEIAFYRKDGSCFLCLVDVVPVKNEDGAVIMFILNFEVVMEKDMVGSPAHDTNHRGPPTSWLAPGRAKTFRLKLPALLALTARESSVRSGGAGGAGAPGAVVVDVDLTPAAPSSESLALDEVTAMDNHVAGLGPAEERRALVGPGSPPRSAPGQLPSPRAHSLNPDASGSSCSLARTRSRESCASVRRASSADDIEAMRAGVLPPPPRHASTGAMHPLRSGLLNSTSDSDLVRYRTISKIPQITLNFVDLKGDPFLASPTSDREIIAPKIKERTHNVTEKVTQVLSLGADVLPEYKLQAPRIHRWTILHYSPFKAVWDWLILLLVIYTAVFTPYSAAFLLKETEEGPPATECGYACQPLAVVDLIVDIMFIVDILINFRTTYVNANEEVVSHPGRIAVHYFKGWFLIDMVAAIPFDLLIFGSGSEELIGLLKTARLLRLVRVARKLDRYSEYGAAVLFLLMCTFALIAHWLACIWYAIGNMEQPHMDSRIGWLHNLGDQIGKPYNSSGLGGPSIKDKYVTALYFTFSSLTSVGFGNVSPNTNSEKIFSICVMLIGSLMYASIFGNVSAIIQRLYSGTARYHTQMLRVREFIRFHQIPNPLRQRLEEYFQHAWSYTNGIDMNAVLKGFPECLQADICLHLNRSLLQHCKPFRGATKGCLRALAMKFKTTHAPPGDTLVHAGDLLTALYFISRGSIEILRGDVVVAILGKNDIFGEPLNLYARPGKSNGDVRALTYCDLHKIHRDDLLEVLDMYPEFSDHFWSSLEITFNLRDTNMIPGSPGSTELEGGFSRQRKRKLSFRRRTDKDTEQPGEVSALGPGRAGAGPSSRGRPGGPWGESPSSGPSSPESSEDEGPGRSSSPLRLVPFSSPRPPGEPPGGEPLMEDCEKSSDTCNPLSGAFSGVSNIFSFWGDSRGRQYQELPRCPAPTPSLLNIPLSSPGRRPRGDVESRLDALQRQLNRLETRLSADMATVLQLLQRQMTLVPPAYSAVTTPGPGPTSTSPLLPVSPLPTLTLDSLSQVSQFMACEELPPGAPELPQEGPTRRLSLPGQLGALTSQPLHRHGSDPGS
Chain of 5-hydroxytryptamine receptor 2B (P41595 whole entry): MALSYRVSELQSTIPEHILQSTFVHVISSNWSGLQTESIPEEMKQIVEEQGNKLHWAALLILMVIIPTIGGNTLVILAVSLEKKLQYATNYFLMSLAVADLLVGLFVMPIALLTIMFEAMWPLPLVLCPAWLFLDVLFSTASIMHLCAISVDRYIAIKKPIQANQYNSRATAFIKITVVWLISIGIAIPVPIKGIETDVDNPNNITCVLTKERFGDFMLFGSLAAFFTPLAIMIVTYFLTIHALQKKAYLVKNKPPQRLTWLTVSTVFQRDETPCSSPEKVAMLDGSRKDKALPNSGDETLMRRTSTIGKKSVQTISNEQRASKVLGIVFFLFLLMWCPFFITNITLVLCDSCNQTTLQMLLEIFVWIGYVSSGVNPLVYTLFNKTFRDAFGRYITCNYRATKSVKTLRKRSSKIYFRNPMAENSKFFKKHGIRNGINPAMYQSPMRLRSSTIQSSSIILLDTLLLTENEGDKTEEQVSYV

| Compound | IC50 [1] | Ki [1] | IC50 ([2]; cho-k1) | IC50 ([3]; read-out: IC50) [µM] | Ki [3] [µM] | IC50 ([4]; cho-k1) | IC50 [5] | IC50 ([3]; cho) | IC50 ([4]; read-out: IC50) [µM] | Ki ([4]; read-out: Ki) [µM] | IC50 ([2]; read-out: IC50) [µM] | Ki ([2]; read-out: Ki) [µM] |
| --- | --- | --- | --- | --- | --- | --- | --- | --- | --- | --- | --- | --- |
| CC(C)(C)NC(=O)[C@@H]1C[C@@H]2CCCC[C@@H]2CN1C[C@@H](O)[C@H](Cc1ccccc1)NC(=O)[C@H](CC(N)=O)NC(=O)c1ccc2ccccc2n1 | Not Active | Not Active | Not Active | 6.21 | 2.07 | Not Active | Not Active |  |  |  |  |  |
| CC(=O)[C@@]1(O)CC[C@H]2[C@@H]3C[C@H](C)C4=CC(=O)CC[C@]4(C)[C@H]3CC[C@@]21C | Not Active | Not Active | Not Active |  |  | Not Active | Not Active | Not Active |  |  |  |  |
| N[C@@H](Cc1ccc(N(CCCl)CCCl)cc1)C(=O)O | Not Active | Not Active | Not Active |  |  | Not Active | Not Active | Not Active |  |  |  |  |
| CCCCc1oc2ccccc2c1C(=O)c1cc(I)c(OCCN(CC)CC)c(I)c1 [AMIODARONE] |  |  |  | 19.3 | 6.44 |  | Not Active |  | 11.1 | 4.28 |  |  |
| OCCN(CCO)c1nc(N2CCCCC2)c2nc(N(CCO)CCO)nc(N3CCCCC3)c2n1 [DIPYRIDAMOLE] | Not Active | Not Active | Not Active |  |  | Not Active | Not Active | Not Active |  |  |  |  |
| Cc1oncc1C(=O)Nc1ccc(C(F)(F)F)cc1 [LEFLUNOMIDE] | Not Active | Not Active | Not Active |  |  | Not Active | Not Active | Not Active |  |  |  |  |
| c1ccc([C@H]2CN3CCSC3=N2)cc1 [LEVAMISOLE] | Not Active | Not Active | Not Active |  |  | Not Active | Not Active | Not Active |  |  |  |  |
| N[C@@H](Cc1ccc(O)c(O)c1)C(=O)O [LEVODOPA] | Not Active | Not Active | Not Active |  |  | Not Active | Not Active | Not Active |  |  |  |  |
| N[C@@H](Cc1cc(I)c(Oc2ccc(O)c(I)c2)c(I)c1)C(=O)O [LIOTHYRONINE] | Not Active | Not Active | Not Active |  |  | Not Active | Not Active | Not Active |  |  |  |  |
| O=NN(CCCl)C(=O)NC1CCCCC1 [LOMUSTINE] | Not Active | Not Active | Not Active |  |  | Not Active | Not Active | Not Active |  |  |  |  |
| CCOC(=O)N1CCC(=C2c3ccc(Cl)cc3CCc3cccnc32)CC1 [LORATADINE] |  |  |  |  |  | Not Active | Not Active | Not Active |  |  |  |  |
| Cn1ccnc1S [METHIMAZOLE] | Not Active | Not Active | Not Active |  |  | Not Active | Not Active | Not Active |  |  |  |  |
| CC[C@@H](CO)NC(=O)[C@@H]1C=C2c3cccc4[nH]cc(c34)C[C@H]2N(C)C1 [METHYLERGONOVINE] | Not Active | Not Active |  |  |  | Not Active | Not Active | Not Active |  |  | 0.00151 | 0.000958 |
| COc1nc(C)nc(Cl)c1NC1=NCCN1 [MOXONIDINE] | Not Active | Not Active | Not Active |  |  | Not Active | Not Active | Not Active |  |  |  |  |
| COc1c(C)c2c(c(O)c1C/C=C(\C)CCC(=O)O)C(=O)OC2 [MYCOPHENOLIC ACID] | Not Active | Not Active | Not Active |  |  | Not Active | Not Active | Not Active |  |  |  |  |
| O=c1ncn2nc(Sc3ccc(F)cc3F)ccc2c1-c1c(Cl)cccc1Cl [NEFLAMAPIMOD] | Not Active | Not Active | Not Active |  |  | Not Active | Not Active | Not Active |  |  |  |  |
| CN1CCN(CCCN2c3ccccc3Sc3ccc(Cl)cc32)CC1 [PROCHLORPERAZINE] |  |  |  |  |  | Not Active | Not Active | Not Active |  |  |  |  |
| CO[C@H]1/C=C/O[C@@]2(C)Oc3c(C)c(O)c4c(O)c(c(/C=N/N5CCN(C)CC5)c(O)c4c3C2=O)NC(=O)/C(C)=C\C=C\[C@H](C)[C@H](O)[C@@H](C)[C@@H](O)[C@@H](C)[C@H](OC(C)=O)[C@@H]1C [RIFAMPIN] | Not Active | Not Active | Not Active |  |  | Not Active | Not Active | Not Active |  |  |  |  |
| Nc1nc2ccc(OC(F)(F)F)cc2s1 [RILUZOLE] |  |  | Not Active |  |  | Not Active | Not Active | Not Active |  |  |  |  |
